Results reported in patent US8101213B2, “Xanthohumol compositions and methods of using same” (The University of Georgia Research Foundation, Inc, priority 2007, dated 2012).
Read-outs that look alike come from different tables or passages of the source.

What was measured:
caspase-3/7 = test: Caspase-3 and 7 activity assay (Caspase-Glo 3/7) in mature adipocytes; format: cell-based, mouse; settings: for caspase-3/7 activity: individual compound, XN 25, 50 μM, HK 25, 50, 75 μM, 12 h
Protocol: Caspase-3 and 7 activity assay. Adipocytes were incubated with DMSO or the test compounds and the indicated times and concentrations. Thereafter, 100 μl of caspase-Glo 3/7 reagent (Promega, Madison, Wis.) was added to each sample and the cells were incubated for 1 h and assayed according to the manufacturer's instructions.
Effects of XN and HK on caspase-3/−7 activation and PARP cleavage. To confirm apoptosis in response to combined treatment with XN and HK, the activity of caspase-3/7 was evaluated.
The caspases 3/7 activity was measured using a commercially available Caspase Glo 3/7 assay kit (Promega, Madison, Wis.), as described in Example 1.

cytochrome c = test: Cytochrome c release from mitochondria (Western blot); format: cell-based, mouse; settings: compound alone at 50 μM
Protocol: (§1) Western blot analysis. Following the indicated treatment, whole cell extracts were prepared by washing the cells with phosphate buffered saline (PBS) and suspending the cells in a lysis buffer (20 mM Tris, pH 7.5, 150 mM sodium chloride, 1 mM EDTA, 1 mM EGTA, 1% Triton X-100, 2.5 mM sodium pyrophosphate, 1 mM β-glycerophosphate, 1 mM sodium vanadate (Na3VO4), 1 μg/ml aprotinin, 1 μg/ml leupeptin, and 100 μg/ml phenylmethylsulfonyl fluoride). After 30 min of rocking at 4° C., the mixtures were centrifuged (10,000×g) for 10 min, and the supernatants were collected as whole-cell extracts. […] The protein concentration was determined by the method of Bradford with bovine serum albumin as the standard. […] Samples were heated to 70° C. for 10 min, separated by 12% acrylamide gels, and analyzed by immunoblotting. […]
(§2) Quantitative analysis of Western blot data. […] For statistical analysis, all data were expressed as integrated density values (IDV). For PARP, Bcl-2, and cytochrome c, IDVs were calculated as the density values of the specific protein bands/β-actin density values and expressed as percentage of the control.
(§3) Effects of XN and HK cytochrome c release from mitochondria and PARP cleavage in mature adipocytes. To further investigate whether XN and HK affects the intrinsic apoptosis induction pathway, the induction of cytochrome c release was evaluated by Western blotting.

[1] = tested on: mature adipocytes (3T3-L1); settings: mouse, 48 h
Protocol: (§5) 3T3-L1 mouse fibroblast were obtained from American Type Culture Collection (Manassas, Va.) and were cultured in Dulbecco's modified Eagle's medium (DMEM) (GIBCO, Grand Island, N.Y.) containing 10% bovine calf serum (BCS) until confluent. Two days after confluency, the cells were stimulated to differentiate with an induction medium (hereinafter “MDI”), which comprises DMEM containing 10% FBS, 167 nM insulin (Sigma), 0.5 μg of isobutylmethylxanthine (IBMX) (Sigma), and 1 μm of dexamethasone (Sigma) for two (2) days. Cells were then maintained on 10% FBS/DMEM with 167 nM insulin for another 2 days, followed by culturing with FBS/DMEM for an additional four days, at which time more than 90% of cells were mature adipocytes with accumulated fat droplets. All media contained 100 U/ml of penicillin, 100 μg/ml of streptomycin, and 292 μg/ml of glutamine. Cells were maintained at 37° C. in a 5% CO2 humidified environment.
(§6) Cell viability assay. Adipocytes were incubated with dimethyl sulfoxide (DMSO) (0.02%) or test compounds. Prior to measuring viability, treatment media were removed and replaced with 100 μl fresh 10% FBS/DMEM medium and 20 μl MTS solution (Promega, Madison, Wis.). Cells were then returned to the incubator for an additional 2 h before 25 μl of 10% sodium dodecyl sulfate (SDS) was added to stop the reaction. The absorbance was measured at 490 nm in a plate reader (μQuant Bio-Tek Instruments, Inc. Winooski, Vt.) to determine the formazan concentration, which is proportional to the number of live cells.
(§7) Adipocytes were treated with XN (25, 50 μM) and HK (25, 50, 75 μM) as individual compounds or in combination for 12, 24, and 48 h. After treatment, cell viability was determined by the MTS assay, as described in Example 1.
(§8) Adipocytes were treated with XN (25, 50 μM) and G (50, 100 μM) as individual compounds or in combination for 24 and 48 h. After treatment, cell viability was determined by the MTS assay, as described in Example 1.
(§9) Adipocytes were treated with XN (25, 50, 75 μM) and GS (25, 50, 75 μM) as individual compounds or in combination for 24 and 48 h. After treatment, cell viability was determined by the MTS assay, as described in Example 1.

[2] = tested on: mature adipocytes (3T3-L1); test: Cell viability assay (MTS) in mature adipocytes; settings: for effect on cell viability: compound alone at 25 and 50 μM; for effect on viability of mature adipocytes: individual compound, 24 and 48 h
Protocol: as §5, §6, §7, §8, §9

[3] = tested on: Poly (ADP-ribose) polymerase (PARP); test: PARP cleavage in mature adipocytes (Western blot); format: cell-based, mouse; settings: compound alone
Protocol: as §1, §2, §3

3T3-L1 pre-adipocytes = test: Adipogenesis: lipid content (AdipoRed) during maturation of pre-adipocytes; format: cell-based, mouse; settings: compound alone, days 0-6 of differentiation
Protocol: Quantification of lipid content and oil red O staining. Lipid content was measured using a commercially available kit (AdipoRed Assay Reagent; Cambrex Bio Science, Walkersville, Inc.). Briefly, test compositions and a 0.01% DMSO control were added with the induction medium for days 0-6 of adipogenesis. Medium was changed every 2 days. On day 6, intracellular lipid content was measured by AdipoRed Assay. Cells were washed with PBS (pH 7.4) and 200 μl of PBS was added to the wells. About 5 μl of AdipoRed reagent was added to each well. After 10 min, the plates were placed in the fluorometer and fluorescence was measured with excitation wavelength of 485 nm and emission wavelength of 572 nm. To visualize lipid content, treated cells were stained with oil red O and hematoxylin as described by Suryawan and Hu. After mounting with glycerol gelatin, three images for each dish were captured using ImagePro software (MediaCybernetics, Silver Spring, Md.).
Effects of XN and HK on adipogenesis of post-confluent pre-adipocytes during maturation. Post-confluent pre-adipocytes were induced to differentiate for 0-6 days in differentiation medium with or without XN or HK for indicated times. […]
To determine the synergistic effects of XN and GS on adipogenesis, the effect of XN and GS on inhibiting lipid accumulation in (FIG. 15A) and viability of (FIG. 15B) maturing 3T3-L1 adipocytes was determined.

[4] = tested on: mature adipocytes (3T3-L1); test: Apoptosis assay (ApoStrand ELISA, single stranded DNA) in mature adipocytes; format: cell-based, mouse; settings: for effect on apoptosis: compound alone at 25 and 50 μM; for % Increase in apoptosis mean ± s.e.m.: mature adipocytes, concentration (μM) is the number in the treatment label; for increased apoptosis, alone: XN or GS alone; for effect on apoptosis of mature adipocytes (ssDNA): individual compound, XN e.g. 50 μM at 48 hrs
Protocol: Apoptosis assays. For the assessment of apoptosis, the ApoStrand ELISA Apoptosis Detection Kit (Biomol, Plymouth Meeting, Pa.) was used. This kit detects single stranded DNA, which occurs in apoptotic cells but not in necrotic cells or in cells with DNA breaks in the absence of apoptosis. Adipocytes were incubated with DMSO or the test compounds for the indicated times and at the indicated concentrations. Thereafter, treatment media was removed and the cells were fixed for 30 min and assayed according to the manufacturer's instructions.
The enhanced reduction in cell viability by XN plus HK was evaluated to determine if the reduction in cell viability was attributable to apoptosis.
The effects of XN and G on mature adipocytes apoptosis were investigated by measuring the changes of the levels of single strained DNA (ssDNA) in the cells.
(§4) The enhanced reduction in cell viability by XN plus GS was evaluated to determine if the reduction in cell viability was attributable to apoptosis.

Bcl-2 protein = Bcl-2 protein expression (Western blot); format: cell-based, mouse; settings: compound individually
Protocol: as §1, §2
To further investigate whether XN and GS affects the intrinsic apoptosis induction pathway, the expression of the anti-apoptotic Bcl-2 protein was evaluated by western blotting.

mature adipocytes [5] = test: Hoechst staining of mature adipocytes; format: cell-based, mouse; settings: XN or GS alone
Protocol: as §4

mature adipocytes [6] = test: Lipolysis in mature adipocytes; format: cell-based, mouse; settings: for lipolysis: XN or GS alone, 12 h incubation
Protocol: Effects of XN and HK on lipolysis in mature adipocytes. Mature adipocytes were incubated with either control or test compounds for indicated times.

mature adipocytes [7] = test: Lipid content of mature adipocytes after 7-day treatment; format: cell-based, mouse; settings: individual compound, XN 6 μM and 12 μM, GS 12 μM and 25 μM, seven days

| SMILES | caspase-3/7 activity (caspase-3/7) | effect on cytochrome c release (cytochrome c) | effect on cell viability ([2]; 48 h) | effect on PARP cleavage [3] | lipid accumulation during maturation (3T3-L1 pre-adipocytes) | effect on apoptosis ([4]; 24 h) | Bcl-2 protein level (Bcl-2 protein) | Hoechst staining, individual treatments (mature adipocytes [5]) | lipolysis (mature adipocytes [6]) | effect on viability of mature adipocytes ([2]; XN 25, 50 μM, G 50, 100 μM) | effect on viability of mature adipocytes ([2]; XN or GS 25, 50, 75 μM) | increased apoptosis, alone [4] | effect on apoptosis of mature adipocytes (ssDNA) [4] | lipid accumulation in mature adipocytes (mature adipocytes [7]) | other results |
| --- | --- | --- | --- | --- | --- | --- | --- | --- | --- | --- | --- | --- | --- | --- | --- |
| C=CCc1ccc(O)c(-c2ccc(O)c(CC=C)c2)c1 [HK, Honokiol] | increased caspase-3/7 activity in a dose-dependent manner | neither 50 μM of XN nor 50 μM of HK had an effect | no effect | neither compound alone may affect | increased lipid accumulation | no effect | – | – | – | – | – | – | – | – | % Decrease in viability mean ± s.e.m. [1]: −1.8 ± 1.5%; cytotoxicity at 75 µM ([2]; Mus musculus, 3T3-L1, 48 h, read-out: decreased cell viability): 9.1 ± 2.5%; increased apoptosis ([4]; alone at 75 μM, 24 h, P<0.05): 70.4±15.9%; % Increase in apoptosis mean ± s.e.m. ([4]; 24 h, listed as HK50): 10.8 ± 5.9%; % Increase in apoptosis mean ± s.e.m. ([4]; 24 h, listed as HK75): 70.4 ± 15.9% |
| COc1cc(O)c(CC=C(C)C)c(O)c1C(=O)/C=C/c1ccc(O)cc1 [XN, Xanthohumol] | increased caspase-3/7 activity in a dose-dependent manner | neither 50 μM of XN nor 50 μM of HK had an effect | no effect | neither compound alone may affect | decreased lipid accumulation | no effect | decreased Bcl-2 | small increase in staining | increased lipolysis slightly | decreased the viability of mature adipocytes in a dose-dependent and time-dependent manner | decreased the viability of mature adipocytes in a dose-dependent and time-dependent manner | about 20% | increased apoptosis | decreased lipid accumulation | increase in lipolysis (mature adipocytes [6]; XN 50 μM alone): 20%; % Decrease in viability mean ± s.e.m. ([2]; mature adipocytes, 48 h, concentration (μM) is the number in the treatment label): −2.8 ± 1.5%; % Increase in apoptosis mean ± s.e.m. ([4]; 24 h): 51.0 ± 16.5% |
| O=c1c(-c2ccc(O)cc2)coc2cc(O)cc(O)c12 [G, 4,5,7-trihydroxyisoflavone] | – | – | – | – | – | – | – | – | – | did not affect the viability | – | – | did not affect apoptosis | – | – |
| C/C=C1\C(=O)C[C@H]2[C@@H]3CCC4=CC(=O)CC[C@]4(C)[C@H]3CC[C@]12C [GS, Guggulsterone] | – | – | – | – | – | – | decreased Bcl-2 | small increase in staining | increased lipolysis slightly | – | decreased the viability of mature adipocytes in a dose-dependent and time-dependent manner | about 20% | – | decreased lipid accumulation | caspase 3/7 activity (caspase-3/7; GS alone at 75 μM): increased caspase activity |
